The subject of one experiment is MPTP-ablated monkeys. Description: Parkinsonian clinical rating scale (CRS) in MPTP-ablated monkeys. The conditions noted are these: diflucan continuously 3-12 mg/kg x day in animal previously treated with Lenti-GDNF. It counts as in vivo, rhesus.
The next experiment has as its system GDNF. As to the kind of experiment: GDNF expression in brain of MPTP-ablated monkeys (immunohistochemistry, ELISA). The experiment is classed as in vivo, rhesus. In general terms: ELISA stands for enzyme-linked immunosorbent assay.

Molecules are shown by their SMILES.

Experimental for GDNF: After euthanasia, all monkeys are perfused with saline. The brain is removed, immersed in ice-cold saline for 10 min, and sliced on a monkey brain slicer. Slabs through the head of the caudate and putamen are punched bilaterally with a 1 mm brain punch. These punches are processed for HPLC for determination of catecholamine content. Brain punches are also homogenized in 150:1 buffer I [0.1M tris-buffered saline, pH 8.1, containing 1 mM EDTA, 1% aprotinin, 10 mg/ml leupeptin, 14 mg/ml pepstatin, 4 mM phenylmethylsulfonyl fluoride (PMSF)] for 30 sec in the ice slurry. An equal amount of buffer II (0.1 M tris-buffered saline, pH 8.1, containing 1 mM EDTA, 1% aprotinin, 10 g/ml leupeptin, 14 μg/ml pepstatin, 4 mM PMSF, and 0.5% NP-40) is then added. The tubes are shaken for 2 hours. The supernatant is collected for ELISA and protein measurements. The ELISA reaction was completed in 96-well plate (Dynatech, Chantilly, Va.) according to the ELISA manufacturer's instructions (GDNF Emax ImmunoAssay Systems Kit G3520, Promega, Madison, Wis.). The optical densities are recorded in ELISA plate reader (at 450 nm wave length; Dynatech). […] The concentrations of GDNF are calculated against six-point standard curve and then adjusted to picograms of GDNF per milligram of total protein. The total protein in each tissue lysate is measured using Bio-Rad protein assay kit (Bio-Rad, Richmond, Calif.). […]

Take `OC(Cn1cncn1)(Cn1cncn1)c1ccc(F)cc1F` [Diflucan, Fluconazole]: in the experiment on MPTP-ablated monkeys, the “therapeutic effect in Parkinson's model monkeys” value is recorded as “no therapeutic effect”. In addition, the GDNF expression result in the experiment on GDNF (diflucan continuously 3-12 mg/kg x day in animal previously treated with Lenti-GDNF) is on record as “switched off”. Besides, the “levels of GDNF in the brains” value with GDNF (diflucan treated animals compared to animals where diflucan is omitted) was “no significant levels of GDNF”.

(Values after patent publication US20050260164A1, “Gene regulation with aptamer and modulator complexes for gene therapy” (priority 2002, published 2005).)
